Results: patent US7879881B2, “Piperidinyl compounds that selectively bind integrins” (Janssen Pharmaceutica NV, priority 2002, dated 2011)
Read-outs that look alike come from different tables or passages of the source.

What was measured:
Human αvβ3 = target: T1, Human αvβ3 (Homo sapiens, UniProt P05106+P06756); assay: In Vitro Solid Phase Purified αvβ3 Binding Assay (vitronectin/αvβ3); conditions: vitronectin binding to immobilized purified human αvβ3, mean ± spread
T1 construct: purchased Chemicon International Inc., Temecula, Calif
Method: In Vitro Solid Phase Purified αvβ3 Binding Assay
(§1) Human αvβ3 (Chemicon International Inc., Temecula, Calif.), at a concentration of 1 μg/ml dissolved in Tris buffer (20 mM Tris, 1 mM CaCl2, 1 mM MgCl2, 10 μM MnCl2, 150 mM NaCl), was immobilized on Immulon 96 well plates (Dynex Technologies, Chantilly, Va.) overnight at 4° C. Plates were washed and treated with blocking buffer (3% BSA in Tris buffer) for 2 h at 37° C. Plates were then rinsed 2 times with assay buffer comprised of Tris buffer. Synthesized compounds were added to wells in duplicate immediately prior to the addition of 2 nM vitronectin (Sigma, St. Louis, Mo.). Following a 3 hour incubation at 37° C., plates were washed 5 times in assay buffer. An anti-human vitronectin IgG rabbit polyclonal antibody (Calbiochem, San Diego, Calif.) was added (1:2000) and plates were incubated for 1 hour at room temperature. VectaStain ABC peroxidase kit reagents (Vector Laboratories, Burlingame, Calif.) employing a biotin labeled anti-rabbit IgG, were utilized for detection of bound antibody. Plates were read at 490 nm on a Molecular Devices (Sunnyvale, Calif.) microplate reader.

GP IIb/IIIa = GP IIb/IIIa (Homo sapiens, UniProt P05106+P08514); assay: In Vitro Solid Phase Purified GP IIb/IIIa Binding Assay (biotinylated fibrinogen); conditions: biotinylated fibrinogen binding to immobilized purified GP IIb/IIIa, mean ± spread
Method: In Vitro Solid Phase Purified GP IIb/IIIa Binding Assay
The plate was covered and incubated overnight at 4° C. The GP IIb/IIIa solution was discarded and 150 μL of 5% BSA was added and incubated at RT for 1-3 h. The plate was washed extensively with modified Tyrodes buffer. Biotinylated fibrinogen (25 μL/well) at 2× final concentration was added to the wells that contain the test compounds (25 μL/well). The plate was covered and incubated at RT for 2-4 h. Twenty minutes prior to incubation completion, one drop of Reagent A (VectaStain ABC Horseradish Peroxidase kit, Vector Laboratories, Inc.) and one drop Reagent B were added with mixing to 5 mL modified Tyrodes buffer mix and let stand. The ligand solution was discarded and the plate washed (5×200 μL/well) with modified Tyrodes buffer. […] The Vecta Stain solution was discarded and the wells washed (5×200 μL/well) with modified Tyrodes buffer. Developing buffer (10 mL of 50 mM citrate/phosphate buffer @ pH 5.3, 6 mg o-phenylenediamine, 6 μL 30% H2O2; 50 μL/well) was added and incubated at RT for 3-5 min and then 2 N H2SO4 (50 μL/well) was added.

human purified αVβ5 = target: T2, human purified αVβ5 (Homo sapiens, UniProt P06756+P18084); assay: In Vitro Solid Phase Purified αcβ5 Binding Assay (vitronectin/αVβ5); conditions: vitronectin binding to immobilized purified human αVβ5, mean ± spread
T2 construct: purchased Chemicon International, Inc
Method: as §1
In Vitro Solid Phase Purified αcβ5 Binding Assay
All other aspects of the assay including buffers, reagents and incubation times remain unchanged.

Sequence of GP IIb/IIIa (P08514 32-887 limits assumed): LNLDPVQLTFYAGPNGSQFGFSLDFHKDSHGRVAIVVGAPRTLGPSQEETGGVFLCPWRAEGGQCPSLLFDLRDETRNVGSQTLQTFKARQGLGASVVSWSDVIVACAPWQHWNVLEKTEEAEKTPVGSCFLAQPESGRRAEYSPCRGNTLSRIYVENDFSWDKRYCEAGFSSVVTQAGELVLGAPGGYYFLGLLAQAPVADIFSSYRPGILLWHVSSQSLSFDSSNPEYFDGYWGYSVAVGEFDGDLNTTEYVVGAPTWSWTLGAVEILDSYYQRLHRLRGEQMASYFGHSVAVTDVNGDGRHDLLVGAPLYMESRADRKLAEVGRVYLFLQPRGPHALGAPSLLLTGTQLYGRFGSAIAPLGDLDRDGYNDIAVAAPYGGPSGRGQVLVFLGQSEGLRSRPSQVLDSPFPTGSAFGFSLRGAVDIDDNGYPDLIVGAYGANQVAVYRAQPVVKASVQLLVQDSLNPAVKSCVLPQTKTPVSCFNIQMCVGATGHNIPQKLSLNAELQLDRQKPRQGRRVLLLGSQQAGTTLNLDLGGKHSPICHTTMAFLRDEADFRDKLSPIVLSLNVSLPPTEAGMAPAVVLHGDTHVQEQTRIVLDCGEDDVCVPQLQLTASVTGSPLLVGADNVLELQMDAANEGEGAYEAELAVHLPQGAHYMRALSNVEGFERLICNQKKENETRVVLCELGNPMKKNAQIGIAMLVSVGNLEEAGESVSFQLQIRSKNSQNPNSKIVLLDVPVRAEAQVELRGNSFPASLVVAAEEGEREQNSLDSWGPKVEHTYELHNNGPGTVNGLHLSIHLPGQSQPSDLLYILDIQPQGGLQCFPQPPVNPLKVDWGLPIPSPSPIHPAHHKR
Sequence of GP IIb/IIIa (P08514 891-1039 partner limits assumed): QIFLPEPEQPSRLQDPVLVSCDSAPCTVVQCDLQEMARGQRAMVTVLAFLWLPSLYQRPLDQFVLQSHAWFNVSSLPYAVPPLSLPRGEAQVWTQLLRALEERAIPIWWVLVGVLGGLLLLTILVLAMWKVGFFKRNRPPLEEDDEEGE
Sequence of GP IIb/IIIa (P05106 27-788): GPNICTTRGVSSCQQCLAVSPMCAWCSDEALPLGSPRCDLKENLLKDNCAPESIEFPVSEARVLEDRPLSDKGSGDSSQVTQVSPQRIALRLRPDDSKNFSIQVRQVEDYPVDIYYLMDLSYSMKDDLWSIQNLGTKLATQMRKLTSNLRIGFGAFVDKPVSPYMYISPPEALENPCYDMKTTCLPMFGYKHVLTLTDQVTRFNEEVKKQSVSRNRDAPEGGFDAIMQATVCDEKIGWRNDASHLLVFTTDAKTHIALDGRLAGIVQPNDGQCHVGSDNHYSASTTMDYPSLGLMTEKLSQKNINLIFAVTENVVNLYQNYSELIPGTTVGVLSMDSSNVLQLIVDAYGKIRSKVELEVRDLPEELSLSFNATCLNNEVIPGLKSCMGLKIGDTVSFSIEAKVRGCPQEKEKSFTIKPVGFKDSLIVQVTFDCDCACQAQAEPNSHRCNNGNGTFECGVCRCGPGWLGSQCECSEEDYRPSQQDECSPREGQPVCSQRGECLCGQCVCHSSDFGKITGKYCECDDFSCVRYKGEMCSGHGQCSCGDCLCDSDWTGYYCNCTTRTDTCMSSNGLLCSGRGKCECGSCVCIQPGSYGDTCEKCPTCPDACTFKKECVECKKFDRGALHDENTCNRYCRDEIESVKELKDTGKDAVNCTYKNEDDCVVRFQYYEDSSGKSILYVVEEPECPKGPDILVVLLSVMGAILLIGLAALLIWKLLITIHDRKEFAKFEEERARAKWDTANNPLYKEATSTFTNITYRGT
T2 sequence (P06756 31-889 limits assumed): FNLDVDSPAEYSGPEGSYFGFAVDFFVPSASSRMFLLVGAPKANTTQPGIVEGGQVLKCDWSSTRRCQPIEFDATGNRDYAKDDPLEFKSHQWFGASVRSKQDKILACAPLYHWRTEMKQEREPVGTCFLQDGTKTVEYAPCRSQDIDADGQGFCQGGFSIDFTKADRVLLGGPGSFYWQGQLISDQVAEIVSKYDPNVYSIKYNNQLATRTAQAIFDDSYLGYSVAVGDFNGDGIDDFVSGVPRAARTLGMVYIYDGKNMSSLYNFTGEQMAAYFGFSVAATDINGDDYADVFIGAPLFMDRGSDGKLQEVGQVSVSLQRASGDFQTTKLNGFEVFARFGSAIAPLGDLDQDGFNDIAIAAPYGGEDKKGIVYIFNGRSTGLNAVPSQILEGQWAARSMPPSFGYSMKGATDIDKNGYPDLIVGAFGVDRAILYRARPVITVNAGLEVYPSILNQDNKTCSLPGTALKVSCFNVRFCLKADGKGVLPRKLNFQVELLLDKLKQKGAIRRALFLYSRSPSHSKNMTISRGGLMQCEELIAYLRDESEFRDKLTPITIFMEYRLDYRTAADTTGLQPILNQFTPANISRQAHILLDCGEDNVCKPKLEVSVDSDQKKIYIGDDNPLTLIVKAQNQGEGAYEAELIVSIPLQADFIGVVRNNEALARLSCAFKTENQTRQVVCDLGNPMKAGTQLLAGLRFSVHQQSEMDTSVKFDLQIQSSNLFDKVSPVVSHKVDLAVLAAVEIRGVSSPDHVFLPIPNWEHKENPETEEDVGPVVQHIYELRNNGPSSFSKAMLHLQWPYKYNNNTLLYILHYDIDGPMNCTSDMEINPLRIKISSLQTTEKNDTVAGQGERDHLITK
T2 sequence (P06756 891-1048 partner limits assumed): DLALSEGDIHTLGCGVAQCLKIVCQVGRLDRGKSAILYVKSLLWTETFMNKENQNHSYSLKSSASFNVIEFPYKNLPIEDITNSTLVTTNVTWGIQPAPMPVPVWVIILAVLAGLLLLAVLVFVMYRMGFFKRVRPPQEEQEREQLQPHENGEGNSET
T2 sequence (P18084 24-799): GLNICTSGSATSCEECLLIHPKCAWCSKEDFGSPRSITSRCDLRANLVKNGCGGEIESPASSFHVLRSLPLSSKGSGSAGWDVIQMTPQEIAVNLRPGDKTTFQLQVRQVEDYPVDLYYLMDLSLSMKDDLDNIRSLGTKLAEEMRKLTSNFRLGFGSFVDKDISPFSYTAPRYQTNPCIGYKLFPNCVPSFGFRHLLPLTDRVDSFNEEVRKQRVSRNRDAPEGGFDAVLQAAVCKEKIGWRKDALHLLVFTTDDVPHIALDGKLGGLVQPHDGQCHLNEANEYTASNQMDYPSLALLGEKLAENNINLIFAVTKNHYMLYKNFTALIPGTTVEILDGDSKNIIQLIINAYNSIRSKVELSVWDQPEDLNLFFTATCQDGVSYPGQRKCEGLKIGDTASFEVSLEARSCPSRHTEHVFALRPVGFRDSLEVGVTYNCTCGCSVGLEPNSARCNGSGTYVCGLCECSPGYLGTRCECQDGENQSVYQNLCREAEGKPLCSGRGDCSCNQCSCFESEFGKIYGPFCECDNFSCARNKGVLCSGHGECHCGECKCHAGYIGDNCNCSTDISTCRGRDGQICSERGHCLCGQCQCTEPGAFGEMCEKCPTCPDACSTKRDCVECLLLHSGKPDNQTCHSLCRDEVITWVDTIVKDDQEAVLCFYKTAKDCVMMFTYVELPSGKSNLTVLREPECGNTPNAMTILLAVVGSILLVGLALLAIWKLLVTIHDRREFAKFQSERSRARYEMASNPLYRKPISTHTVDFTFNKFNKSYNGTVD
T1 sequence (P06756 31-889 limits assumed): as the sequence (P06756 31-889 limits assumed) above
T1 sequence (P06756 891-1048 partner limits assumed): as the sequence (P06756 891-1048 partner limits assumed) above
T1 sequence (P05106 27-788): as the sequence (P05106 27-788) above

| SMILES | IC50 (Human αvβ3; read-out: αvβ3IC50) [µM] | IC50 (GP IIb/IIIa; read-out: αIIbβ3 IC50) [µM] | IC50 (human purified αVβ5; read-out: αvβ5 IC50) [µM] | IC50 (Human αvβ3; αvβ3IC50 (uM)) [µM] | IC50 (GP IIb/IIIa; αIIbβ3 IC50 (uM)) [µM] | IC50 (human purified αVβ5; αvβ5 IC50 (uM)) [µM] |
| --- | --- | --- | --- | --- | --- | --- |
| O=C(O)CC(CC1CCN(C(=O)CCc2ccc3c(n2)NCCC3)CC1)c1cccnc1 (stereo not drawn) [Cpd 45, β-[[1-[1-oxo-3-(5,6,7,8-tetrahydro-1,8-naphthyridin-2-yl)propyl]-4-piperidinyl]methyl]-3-pyridinepropanoic acid] | 0.0008 ± 0.0001 | 6.61 ± 2.85 | 0.0017 ± 0.0003 |  |  |  |
| CC1=NCC(C(CC(=O)O)CC2CCN(C(=O)CCc3ccc4c(n3)NCCC4)CC2)CN1 (stereo not drawn) [Cpd 18, 1,4,5,6-tetrahydro-2-methyl-β-[[1-[1-oxo-3-(5,6,7,8-tetrahydro-1,8-naphthyridin-2-yl)propyl]-4-piperidinyl]methyl]-5-pyrimidinepropanoic acid] | > 5 | > 50 | > 5 |  |  |  |
| O=C(O)CC(CC1CCN(C(=O)CCc2ccc3c(n2)NCCC3)CC1)c1ccc(OC(F)(F)F)cc1 (stereo not drawn) [Cpd 40, 1-[1-oxo-3-(5,6,7,8-tetrahydro-1,8-naphthyridin-2-yl)propyl]-β-[4-(trifluoromethoxy)phenyl]-4-piperidinebutanoic acid] | 0.0052 ± 0.0002 | 24 ± 9.89 | 0.308 ± 0.063 |  |  |  |
| COc1ncc(C(CC(=O)O)CC2CCN(C(=O)CCc3ccc4c(n3)NCCC4)CC2)cn1 (stereo not drawn) [Cpd 48, 2-methoxy-β-[[1-[1-oxo-3-(5,6,7,8-tetrahydro-1,8-naphthyridin-2-yl)propyl]-4-piperidinyl]methyl]-5-pyrimidinepropanoic acid] | 0.001 ± 0.0005 | 1.21 ± 0.2 | 0.0033 ± 0.0014 |  |  |  |
| O=C(O)CC(CC1CCN(CCCc2ccc3c(n2)NCCC3)CC1)c1cccc(F)c1 (racemic) [Cpd 81, 3-(3-Fluoro-phenyl)-4-[1-(3-5,6,7,8-tetrahydro-[1,8]naphthyridin-2-yl-propyl]-piperidin-4-yl]-butyric acid] | 0.0067 ± 0.0002 | 22.7 | 0.0101 ± 0.0017 |  |  |  |
| CSc1cccc(C(CC(=O)O)CC2CCN(C(=O)CCc3ccc4c(n3)NCCC4)CC2)c1 (racemic) [Cpd 66] | 0.0012 ± 0.0001 | 28.3 | 0.0103 ± 0.0014 |  |  |  |
| O=C(O)CC(CC1CCN(C(=O)CCc2ccc3c(n2)NCCC3)CC1)c1ccc2c(c1)OCC2 (stereo not drawn) [Cpd 36, β-(2,3-dihydro-6-benzofuranyl)-1-[1-oxo-3-(5,6,7,8-tetrahydro-1,8-naphthyridin-2-yl)propyl]-4-piperidinebutanoic acid] | 0.0008 ± 6e-05 | 3.11 ± 0.04 | 0.0007 ± 0.0002 |  |  |  |
| O=C(O)CC(CC1CCN(C(=O)CCc2ccc3c(n2)NCCC3)CC1)C1CNc2ccccc2C1 (single isomer, unassigned) [Cpd 19-2, 1,2,3,4-tetrahydro-β-[[1-[1-oxo-3-(5,6,7,8-tetrahydro-1,8-naphthyridin-2-yl)propyl]-4-piperidinyl]methyl]-3-quinolinepropanoic acid] | 0.0013 ± 0.0001 | 12.9 | 0.0092 ± 0.0004 |  |  |  |
| COc1ccc(C(CCC2CCN(C(=O)CCCNc3ccccn3)CC2)CC(=O)O)cn1 (stereo not drawn) [Cpd 25, 6-methoxy-β-[2-[1-[1-oxo-4-(2-pyridinylamino)butyl]-4-piperidinyl]ethyl]-3-pyridinepropanoic acid] | 0.0456 ± 0.0066 | 8.67 ± 1.72 | 0.773 ± 0.118 |  |  |  |
| NC(=O)CC(CC1CCN(C(=O)CCc2ccc3c(n2)NCCC3)CC1)c1cccc(F)c1 (racemic) [Cpd 64, 3-(3-Fluoro-phenyl)-4-[1-(3-5,6,7,8-tetrahydro-[1,8]naphthyridin-2-yl-propionyl)-piperidin-4-yl]-butyramide] | 0.0615 ± 0.0055 | > 50 | 0.147 ± 0.0847 |  |  |  |
| O=C(O)CC(C1CCN(C(=O)CCCc2ccc3c(n2)NCCC3)CC1)C1CNc2ccccc2C1 (stereo not drawn) [Cpd 5, 1,2,3,4-Tetrahydro-β-[1-[1-oxo-4-(5,6,7,8-tetrahydro-1,8-naphthyridin-2-yl)butyl]-4-piperidinyl]-3-quinolinepropanoic acid] |  |  |  | 0.0037 ± 0.0014 | 14.8 ± 0.68 | 0.261 ± 0.0569 |
| O=C(O)CC(CC1CCN(C(=O)CCCc2ccc3c(n2)NCCC3)CC1)c1ccc(F)cc1 (stereo not drawn) [Cpd 34, β-(4-fluorophenyl)-1-[1-oxo-4-(5,6,7,8-tetrahydro-1,8-naphthyridin-2-yl)butyl]-4-piperidinebutanoic acid] | 0.148 ± 0.1 | > 50 | 1.04 ± 0.109 |  |  |  |
| O=C(O)CC(CCC1CCN(C(=O)c2cccc(NC3=NCC(O)CN3)c2)CC1)c1cccnc1 (stereo not drawn) [Cpd 7, β-[2-[1-[3-[(1,4,5,6-Tetrahydro-5-hydroxy-2-pyrimidinyl)amino]benzoyl]-4-piperidinyl]ethyl]-3-pyridinepropanoic acid] | 0.0082 ± 0.0014 | 1.67 ± 0.74 | 0.0395 ± 0.0085 |  |  |  |
| Cc1ncc(C(CC(=O)O)CC2CCN(C(=O)CCc3ccc4c(n3)NCCC4)CC2)cn1 (stereo not drawn) [Cpd 35, 2-methyl-β-[[1-[1-oxo-3-(5,6,7,8-tetrahydro-1,8-naphthyridin-2-yl)propyl]-4-piperidinyl]methyl]-5-pyrimidinepropanoic acid] | 0.0007 ± 0.0004 | 0.965 ± 0.07 | 0.0007 ± 0.0002 |  |  |  |
| O=C(O)CC(CCC1CCN(C(=O)CCc2ccc3c(n2)NCCC3)CC1)c1ccc2c(c1)OCO2 (stereo not drawn) [Cpd 20, β-(1,3-benzodioxol-5-yl)-1-[1-oxo-3-(5,6,7,8-tetrahydro-1,8-naphthyridin-2-yl)propyl]-4-piperidinepentanoic acid] | 0.142 ± 0.027 | 1.8 | 0.995 |  |  |  |
| O=C(O)CC(CCC1CCN(C(=O)CCc2ccc3c(n2)NCCC3)CC1)c1cnc2ccccc2c1 (stereo not drawn) [Cpd 51, β-[2-[1-[1-oxo-3-(5,6,7,8-tetrahydro-1,8-naphthyridin-2-yl)propyl]-4-piperidinyl]ethyl]-3-quinolinepropanoic acid] | 0.003 ± 0.0006 | 0.48 ± 0.01 | 0.169 ± 0.019 |  |  |  |
| O=C(O)CC(CC1CCN(C(=O)CCc2ccc3c(n2)NCCC3)CC1)c1ccc2c(c1)OCO2 (stereo not drawn) [Cpd 11, β-(1,3-Benzodioxol-5-yl)-1-[1-oxo-3-(5,6,7,8-tetrahydro-1,8-naphthyridin-2-yl)propyl]-4-piperidinebutanoic acid] | 0.0011 ± 0.0002 | 2.52 ± 0.3 | 0.0023 ± 0.0009 |  |  |  |
| O=C(O)CC(CC1CCN(C(=O)CCc2ccc3c(n2)NCCC3)CC1)c1cc(F)cc(F)c1 (stereo not drawn) [Cpd 37, β-(3,5-difluorophenyl)-1-[1-oxo-3-(5,6,7,8-tetrahydro-1,8-naphthyridin-2-yl)propyl]-4-piperidinebutanoic acid] | 0.0158 ± 0.0043 | > 50 | 0.0897 ± 0.0116 |  |  |  |

Further lines, with some results ahead:

| IC50 (Human αvβ3; read-out: αvβ3IC50) [µM] | IC50 (GP IIb/IIIa; read-out: αIIbβ3 IC50) [µM] | IC50 (human purified αVβ5; read-out: αvβ5 IC50) [µM] | SMILES | IC50 (Human αvβ3; αvβ3IC50 (uM)) [µM] | IC50 (GP IIb/IIIa; αIIbβ3 IC50 (uM)) [µM] | IC50 (human purified αVβ5; αvβ5 IC50 (uM)) [µM] |
| --- | --- | --- | --- | --- | --- | --- |
| 0.0317 ± 0.0147 | > 50 | 0.0482 ± 0.0028 | O=C(O)CC(CC1CCN(C(=O)CCc2ccc3c(n2)NCCC3)CC1)c1cccc(F)c1 (single isomer, unassigned) [Cpd 30b, β-(3-fluorophenyl)-1-[1-oxo-3-(5,6,7,8-tetrahydro-1,8-naphthyridin-2-yl)propyl]-4-piperidinebutanoic acid] |  |  |  |
| 0.0004 | 0.79 ± 0.05 | 0.0009 ± 0.0006 | O=C(O)CC(CC1CCN(C(=O)CCc2ccc3c(n2)NCCC3)CC1)c1ccc2c(c1)OCC2 (single isomer, unassigned) [Cpd 36a, 3-(2,3-Dihydro-benzofuran-6-yl)-4-[1-(3-5,6,7,8-tetrahydro-[1,8]naphthyridin-2-yl-propionyl)-piperidin-4-yl]-butyric acid] |  |  |  |
| 0.0011 ± 0.0002 | 10.4 | 0.0169 ± 0.0021 | COc1cc(C(CC(=O)O)CC2CCN(C(=O)CCc3ccc4c(n3)NCCC4)CC2)ccc1O (stereo not drawn) [Cpd 76a] |  |  |  |
| 0.0004 ± 0.0002 | 2.93 ± 1.86 | 0.0019 ± 0.0004 | O=C(O)CC(CC1CCN(C(=O)CCc2ccc3c(n2)NCCC3)CC1)c1cccc(F)c1 (single isomer, unassigned) [Cpd 30a, β-(3-fluorophenyl)-1-[1-oxo-3-(5,6,7,8-tetrahydro-1,8-naphthyridin-2-yl)propyl]-4-piperidinebutanoic acid] |  |  |  |
| 0.083 ± 0.02 | 35.5 | 0.576 ± 0.149 | O=C(O)CC(c1cnc2c(c1)CCCC2)C1CCN(C(=O)CCCc2ccc3c(n2)NCCC3)CC1 (single isomer, unassigned) [Cpd 58b, 5,6,7,8-Tetrahydro-β-[1-[1-oxo-4-(5,6,7,8-tetrahydro-1,8-naphthyridin-2-yl)butyl]-4-piperidinyl]-3-quinolinepropanoic acid] |  |  |  |
